These compounds were tested against GST-Bcl-2 (Homo sapiens (Human), UniProt P10415) (assay: Time Resolved-Fluorescence Resonance Energy Transfer (TR-FRET) Bcl-2 binding assay). Settings: not given.
GST-Bcl-2, sequence (P10415 whole entry): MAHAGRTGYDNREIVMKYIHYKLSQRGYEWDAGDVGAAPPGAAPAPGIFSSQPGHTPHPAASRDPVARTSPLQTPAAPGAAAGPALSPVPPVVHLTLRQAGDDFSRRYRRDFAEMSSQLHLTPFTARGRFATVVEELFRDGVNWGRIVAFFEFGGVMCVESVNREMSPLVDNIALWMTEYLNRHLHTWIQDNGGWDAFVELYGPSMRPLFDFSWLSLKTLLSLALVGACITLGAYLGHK
Summary of the method: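 Ki values derived from TR-FRET displacement of F-Bak peptide from GST-Bcl-2, detected with Tb-labelled anti-GST antibody (ex 340, em 520/495 nm). Compound dilution series started at 50 μM (2× starting concentration); room-temperature incubation 3 hours.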
Compound CO[C@H]1CC[C@H](CNc2ccc(S(=O)(=O)NC(=O)c3ccc(N4CCN(CC5=C(c6ccc(Cl)cc6)CC(C)(C)CC5)CC4)cc3Oc3cnc(N)c(Br)c3)cc2[N+](=O)[O-])CC1 [Example 367, Trans-2-[(6-amino-5-bromopyridin-3-yl)oxy]-4-(4-{[2-(4-chlorophenyl)-4,4-dimethylcyclohex-1-en-1-yl]methyl}piperazin-1-yl)-N-[(4-{[(4-methoxycyclohexyl)methyl]amino}-3-nitrophenyl)sulfonyl]benzamide] has a Ki of 0.012 nM.

Same assay, conditions: GST-Bcl-2 1 nM, F-Bak peptide probe 100 nM, Tb-anti-GST antibody 1 nM; Ki by Wang's equation
Work on CC1(C)CCC(CN2CCN(c3ccc(C(=O)NS(=O)(=O)c4ccc(NC5CCN(Cc6cscn6)CC5)c([N+](=O)[O-])c4)c(Oc4cc5cc[nH]c5cc4F)c3)CC2)=C(c2ccc(Cl)cc2)C1 [Example 245, 4-(4-{[2-(4-chlorophenyl)-4,4-dimethylcyclohex-1-en-1-yl]methyl}piperazin-1-yl)-2-[(6-fluoro-1H-indol-5-yl)oxy]-N-[(3-nitro-4-{[1-(1,3-thiazol-4-ylmethyl)piperidin-4-yl]amino}phenyl)sulfonyl]benzamide] yielded a Ki of 0.48 nM. Work on CC1(C)CCC(CN2CCN(c3ccc(C(=O)NS(=O)(=O)c4ccc(N[C@@H]5CCN(C(CF)CF)C5)c([N+](=O)[O-])c4)c(Oc4cc5cc[nH]c5cc4F)c3)CC2)=C(c2ccc(Cl)cc2)C1 [Example 357, 4-(4-{[2-(4-chlorophenyl)-4,4-dimethylcyclohex-1-en-1-yl]methyl}piperazin-1-yl)-N-{[4-({(3R)-1-[2-fluoro-1-(fluoromethyl)ethyl]pyrrolidin-3-yl}amino)-3-nitrophenyl]sulfonyl}-2-[(6-fluoro-1H-indol-5-yl)oxy]benzamide] yielded a Ki of 0.177 nM. Compound CC1(C)CCC(CN2CCN(c3ccc(C(=O)NS(=O)(=O)c4ccc(NC5CCN(CCO)CC5)c([N+](=O)[O-])c4)c(Oc4cccc(Cl)c4)c3)CC2)=C(c2ccc(Cl)cc2)C1 [Example 162, 2-(3-chlorophenoxy)-4-(4-{[2-(4-chlorophenyl)-4,4-dimethylcyclohex-1-en-1-yl]methyl}piperazin-1-yl)-N-[(4-{[1-(2-hydroxyethyl)piperidin-4-yl]amino}-3-nitrophenyl)sulfonyl]benzamide] has a Ki of 0.048 nM. With CN1CCC(Nc2ccc(S(=O)(=O)NC(=O)c3ccc(N4CCN(CC5=C(c6ccc(Cl)cc6)CC(C)(C)CC5)CC4)cc3Oc3cc(Cl)ccc3Cl)cc2[N+](=O)[O-])CC1 [Example 60, 4-(4-((2-(4-chlorophenyl)-4,4-dimethylcyclohex-1-en-1-yl)methyl)piperazin-1-yl)-2-(2,5-dichlorophenoxy)-N-((4-((1-methylpiperidin-4-yl)amino)-3-nitrophenyl)sulfonyl)benzamide] the Ki was 0.187 nM. CN1CCC(Nc2ccc(S(=O)(=O)NC(=O)c3ccc(N4CCN(CC5=C(c6ccc(Cl)cc6)CC(C)(C)CC5)CC4)cc3Oc3ccc4[nH]ccc4c3F)cc2[N+](=O)[O-])CC1 [Example 157, 4-(4-{[2-(4-chlorophenyl)-4,4-dimethylcyclohex-1-en-1-yl]methyl}piperazin-1-yl)-2-[(4-fluoro-1H-indol-5-yl)oxy]-N-({4-[(1-methylpiperidin-4-yl)amino]-3-nitrophenyl}sulfonyl)benzamide] gave a Ki of 0.72 nM. In the case of CC1(C)CCC(CN2CCN(c3ccc(C(=O)NS(=O)(=O)c4ccc(NCCN5CCOCC5)c([N+](=O)[O-])c4)c(Oc4cccc(Cl)c4)c3)CC2)=C(c2ccc(Cl)cc2)C1 [Example 141, 2-(3-chlorophenoxy)-4-(4-{[2-(4-chlorophenyl)-4,4-dimethylcyclohex-1-en-1-yl]methyl}piperazin-1-yl)-N-({4-[(2-morpholin-4-ylethyl)amino]-3-nitrophenyl}sulfonyl)benzamide], the Ki is reported as 0.482 nM. Compound CC1(C)CCC(CN2CCN(c3ccc(C(=O)NS(=O)(=O)c4ccc(OCC5(F)CCOCC5)c([N+](=O)[O-])c4)c(Oc4cnc(N)c(Br)c4)c3)CC2)=C(c2ccc(Cl)cc2)C1 [Example 360, 2-[(6-amino-5-bromopyridin-3-yl)oxy]-4-(4-{[2-(4-chlorophenyl)-4,4-dimethylcyclohex-1-en-1-yl]methyl}piperazin-1-yl)-N-({4-[(4-fluorotetrahydro-2H-pyran-4-yl)methoxy]-3-nitrophenyl}sulfonyl)benzamide] has a Ki of 0.05 nM. CC1(C)CCC(CN2CCN(c3ccc(C(=O)NS(=O)(=O)c4ccc(NC5CCN(C6CC6)CC5)c([N+](=O)[O-])c4)c(Oc4cc5cc[nH]c5cc4F)c3)CC2)=C(c2ccc(Cl)cc2)C1 [Example 327, 4-(4-{[2-(4-chlorophenyl)-4,4-dimethylcyclohex-1-en-1-yl]methyl}piperazin-1-yl)-N-({4-[(1-cyclopropylpiperidin-4-yl)amino]-3-nitrophenyl}sulfonyl)-2-[(6-fluoro-1H-indol-5-yl)oxy]benzamide] showed a Ki of 0.212 nM. In the case of CN(C)CCCNc1ccc(S(=O)(=O)NC(=O)c2ccc(N3CCN(CC4=C(c5ccc(Cl)cc5)CC(C)(C)CC4)CC3)cc2Oc2ccccc2Cl)cc1[N+](=O)[O-] [Example 179, 2-(2-chlorophenoxy)-4-(4-{[2-(4-chlorophenyl)-4,4-dimethylcyclohex-1-en-1-yl]methyl}piperazin-1-yl)-N-[(4-{[3-(dimethylamino)propyl]amino}-3-nitrophenyl)sulfonyl]benzamide], the Ki is reported as 0.036 nM. Compound O=C(NS(=O)(=O)c1ccc(NCC2CCOCC2)cc1)c1ccc(N2CCN(Cc3ccccc3-c3ccc(Cl)cc3)CC2)cc1Oc1cccc([N+](=O)[O-])c1 [Example 77, 4-(4-((4′-chloro-1,1′-biphenyl-2-yl)methyl)piperazin-1-yl)-2-(3-nitrophenoxy)-N-((4-((tetrahydro-2H-pyran-4-ylmethyl)amino)phenyl)sulfonyl)benzamide] has a Ki of 451 nM. CC1(C)CCC(CN2CCN(c3ccc(C(=O)NS(=O)(=O)c4cnc(OCC5(F)CCOCC5)c(C#N)c4)c(Oc4cc5cc[nH]c5cc4F)c3)CC2)=C(c2ccc(Cl)cc2)C1 [Example 308, 4-(4-{[2-(4-chlorophenyl)-4,4-dimethylcyclohex-1-en-1-yl]methyl}piperazin-1-yl)-N-({5-cyano-6-[(4-fluorotetrahydro-2H-pyran-4-yl)methoxy]pyridin-3-yl}sulfonyl)-2-[(6-fluoro-1H-indol-5-yl)oxy]benzamide] gave a Ki of 0.04 nM. CC1(C)CCC(CN2CCN(c3ccc(C(=O)NS(=O)(=O)c4cnc(OC[C@@H]5CCN(C(CF)CF)C5)c(Cl)c4)c(Oc4cnc(N)c(Cl)c4)c3)CC2)=C(c2ccc(Cl)cc2)C1 [Example 399, 2-[(6-amino-5-chloropyridin-3-yl)oxy]-N-{[5-chloro-6-({(3R)-1-[2-fluoro-1-(fluoromethyl)ethyl]pyrrolidin-3-yl}methoxy)pyridin-3-yl]sulfonyl}-4-(4-{[2-(4-chlorophenyl)-4,4-dimethylcyclohex-1-en-1-yl]methyl}piperazin-1-yl)benzamide] was tested, and the Ki was under 0.01 nM. CN1CCC(Nc2ccc(S(=O)(=O)NC(=O)c3ccc(N4CCN(CC5=C(c6ccc(Cl)cc6)CC(C)(C)CC5)CC4)cc3Oc3cccc(Cl)c3)cc2[N+](=O)[O-])CC1 [Example 36, 2-(3-chlorophenoxy)-4-(4-((2-(4-chlorophenyl)-4,4-dimethylcyclohex-1-en-1-yl)methyl)piperazin-1-yl)-N-((4-((1-methylpiperidin-4-yl)amino)-3-nitrophenyl)sulfonyl)benzamide] was tested, and the Ki was 0.07 nM. In the case of CC1(C)CCC(CN2CCN(c3ccc(C(=O)NS(=O)(=O)c4ccc(NC5CCN(C6CC6)CC5)c([N+](=O)[O-])c4)c(Oc4cccc(Cl)c4)c3)CC2)=C(c2ccc(Cl)cc2)C1 [Example 119, 2-(3-chlorophenoxy)-4-(4-{[2-(4-chlorophenyl)-4,4-dimethylcyclohex-1-en-1-yl]methyl}piperazin-1-yl)-N-({4-[(1-cyclopropylpiperidin-4-yl)amino]-3-nitrophenyl}sulfonyl)benzamide], the Ki is reported as 0.156 nM. For CN(C)CCCNc1ccc(S(=O)(=O)NC(=O)c2ccc(N3CCN(CC4=C(c5ccc(Cl)cc5)CC(C)(C)CC4)CC3)cc2Oc2cccc(Cl)c2)cc1[N+](=O)[O-] [Example 142, 2-(3-chlorophenoxy)-4-(4-{[2-(4-chlorophenyl)-4,4-dimethylcyclohex-1-en-1-yl]methyl}piperazin-1-yl)-N-[(4-{[3-(dimethylamino)propyl]amino}-3-nitrophenyl)sulfonyl]benzamide], the Ki was 0.071 nM. With CC1(C)CCC(CN2CCN(c3ccc(C(=O)NS(=O)(=O)c4ccc(NCC5CCOCC5)c([N+](=O)[O-])c4)c(Oc4cncc(NC(=O)OC(C)(C)C)c4)c3)CC2)=C(c2ccc(Cl)cc2)C1 [Example 278, tert-butyl 5-(5-(4-{[2-(4-chlorophenyl)-4,4-dimethylcyclohex-1-en-1-yl]methyl}piperazin-1-yl)-2-{[({3-nitro-4-[(tetrahydro-2H-pyran-4-ylmethyl)amino]phenyl}sulfonyl)amino]carbonyl}phenoxy)pyridin-3-ylcarbamate] the Ki was 40 nM. CN1CCN(Nc2ccc(S(=O)(=O)NC(=O)c3ccc(N4CCN(CC5=C(c6ccc(Cl)cc6)CC(C)(C)CC5)CC4)cc3Oc3ccc(O)cc3Cl)cc2S(=O)(=O)C(F)(F)F)CC1 [Example 211, 2-(2-chloro-4-hydroxyphenoxy)-4-(4-{[2-(4-chlorophenyl)-4,4-dimethylcyclohex-1-en-1-yl]methyl}piperazin-1-yl)-N-({4-[(4-methylpiperazin-1-yl)amino]-3-[(trifluoromethyl)sulfonyl]phenyl}sulfonyl)benzamide] showed a Ki of 1.34 nM. Work on CN(C)C(=O)COc1ccc(Oc2cc(N3CCN(Cc4ccccc4-c4ccc(Cl)cc4)CC3)ccc2C(=O)NS(=O)(=O)c2ccc(NCC3CCOCC3)c([N+](=O)[O-])c2)cc1 [Example 101, 4-(4-((4′-chloro-1,1′-biphenyl-2-yl)methyl)piperazin-1-yl)-2-(4-(2-(dimethylamino)-2-oxoethoxy)phenoxy)-N-((3-nitro-4-((tetrahydro-2H-pyran-4-ylmethyl)amino)phenyl)sulfonyl)benzamide] yielded a Ki of 670 nM.

— patent US8952157B2, “Apoptosis-inducing agents for the treatment of cancer and immune and autoimmune diseases” (AbbVie Inc., priority 2008, dated 2015)
